For six compounds, IC50, MBC and MIC results are on record in publication PMC11396667, “Design, Synthesis, and Anticancer and Antibacterial Activities of Quinoline-5-Sulfonamides” (Molecules, 2024).

Holding throughout (format): cell-based
Assay [1] has as its system A549 (human lung adenocarcinoma) cells. The experiment in a line: WST-1 cell viability assay, A549. Conditions: Homo sapiens, A549; WST-1, 72 h exposure, ± SD, n = 6. The method, then: (§1) The synthesized compounds were tested using three cancer cell lines—human amelanotic melanoma (C-32), human breast adenocarcinoma (MDA-MB-231), and human lung adenocarcinoma (A549)—and, for comparison, normal human dermal fibroblasts (HFF-1). The WST-1 (water-soluble tetrazole salt) assay was used to evaluate the effect of the synthesized compounds on the viability of cultured cells.
(§2) Compounds were evaluated for their antiproliferative activity using three cultured cell lines: C-32 (human amelanotic melanoma, ATCC, Manassas, VA, USA), A549 (human lung adenocarcinoma, ATCC, Manassas, VA, USA), MDA-MB-231 (human breast adenocarcinoma derived from metastatic site: pleural effusion, ATCC, Manassas, VA, USA), together with HFF-1 (normal human dermal fibroblasts, ATCC, Manassas, VA, USA). The cultured cells were kept at 37 °C and 5% CO2.
(§3) Cells were seeded in 96-well plates at 5000/well in 100 μL of medium. After 24 h of incubation, the medium was replaced with a new one with the addition of the test substance. After 72 h, the following tests were performed: with crystal violet (determination of the number of adherent cells in the culture), the WST-1 test (determination of the relative number of living cells and their metabolic activity), and the LDH test (determination of the relative number of dead cells in cultures—cytotoxicity of the tested substance).
(§4) WST-1 test: The WST-1 test (Roche Diagnostics, Mannheim, Germany) allows one to determine the relative number of cells in cultures. Absorbance is directly proportional to the number of cells and their metabolic activity. The absorbance measurement is performed at λ = 450 nm (reference wave 600 nm).

In assay [2] the test system is methicillin-resistant S. aureus SA 3202. The experiment in a line: MBC, agar aliquot subculture method, MRSA1. Conditions: Staphylococcus aureus; 99.9% decrease in CFU, 24 h, 37 °C. The text has this: (§5) The activities of the individual derivatives were expressed as minimum inhibitory concentrations (MICs) and minimum bactericidal concentrations (MBCs) and are shown in Table 3 together with the values of the antibiotics used as standards for comparison. […] MBC values of bactericidal compounds are indicated in bold in Table 3.
(§6) For the above-mentioned strains/isolates, the agar aliquot subculture method was used as a test for bactericidal agents. After the MIC value determination, the inoculum was transferred to CaMH (Oxoid) for staphylococci, and BHI (Oxoid) for enterococci medium using a multipoint inoculator. The plates were incubated in a thermostat at 37 °C for 24 h. The lowest concentration of test compound at which ≤5 colonies were obtained was then evaluated as MBC, corresponding to a 99.9% decrease in CFU relative to the original inoculum.

Assay [3] concerns HFF-1 (normal human dermal fibroblasts). The experiment in a line: WST-1 cell viability assay, normal HFF-1. Conditions: HFF-1, WST-1, 72 h exposure, ± SD, n = 6. The method, then: as §1, §2, §3, §4
Background: Tetrazolium assays rely on reduction of a dye to a coloured formazan, in cell work by metabolically active cells.

Assay [4] relates to Staphylococcus aureus ATCC 29213. Put plainly: MBC, agar aliquot subculture method, SA. Conditions: ATCC29213, 99.9% decrease in CFU, 24 h, 37 °C.
Source text: as §5, §6

Assay [5] deals with C-32 (human amelanotic melanoma) cells. The experiment in a line: WST-1 cell viability assay, C-32. Conditions: Homo sapiens; WST-1, 72 h exposure, ± SD, n = 6. On the procedure: as §1, §2, §3, §4
Assay [6] has as its system Enterococcus faecalis ATCC 29212. The experiment in a line: MBC, agar aliquot subculture method, EF. Conditions: ATCC29212, 99.9% decrease in CFU, 24 h, 37 °C.
Source text: as §5, §6

The subject of assay [7] is methicillin-resistant S. aureus SA 630. The experiment in a line: MIC, microtitration broth method, MRSA2. Conditions: Staphylococcus aureus; 24 h, 37 °C, CaMH broth. The text has this:
(§7) Since there is a general decrease in immunity during the treatment of oncological patients, i.e., patients are more susceptible to infectious diseases, it is advantageous if anticancer agents show antimicrobial properties at the same time. Therefore, the effects of the compounds were also investigated against Gram-positive bacteria. For this purpose, the susceptible collection strains of aerobic Staphylococcus aureus ATCC 29213 and facultatively aerobic Enterococcus faecalis ATCC 29212 and resistant clinical isolates of methicillin-resistant S. aureus (MRSA) SA 3202, SA 630 carrying the mecA gene, and vancomycin-resistant isolates of E. faecalis (VRE) 342B, 368, and 725B carrying the vanA gene were selected. Thus, the selection of the studied bacterial strains was adopted following the CLSI ([…]) international reference methodologies.
(§8) The in vitro antibacterial activity of the synthesized compounds was evaluated against representatives of multidrug-resistant bacteria, […] clinical isolates of methicillin-resistant S. aureus: clinical isolates of human origin, MRSA SA 3202, and MRSA SA 630 (National Institute of Public Health, Prague, Czech Republic), carrying the mecA gene. These two clinical isolates were classified as vancomycin-susceptible (but with a higher MIC of vancomycin equal to 2 μg/mL (VA2-MRSA). Vancomycin- and methicillin-susceptible S. aureus ATCC 29213 and vancomycin-susceptible Enterococcus faecalis ATCC 29212, obtained from the American Type Culture Collection, were used as the reference and quality control strains. Three vanA gene-carrying vancomycin-resistant isolates of E. faecalis (VRE 342B, VRE 368, VRE 725B) (Department of Infectious Diseases and Microbiology, Faculty of Veterinary Medicine, University of Veterinary Sciences Brno, Czech Republic) were provided by Oravcova et al..
(§9) The minimum inhibitory concentrations (MICs) were evaluated by the microtitration broth method according to the CLSI, with some modifications. The compounds were dissolved in DMSO (Sigma, St. Louis, MO, USA) to obtain a concentration of […] and diluted in a microtitration plate in an appropriate medium, i.e., Cation-Adjusted Mueller–Hinton Broth (CaMH, Oxoid, Basingstoke, UK) for staphylococci, and Brain Heart Infusion Broth (BHI, Oxoid) for enterococci to reach the final concentration of 256–0.125 µg/mL. Microtiter plates were inoculated with test microorganisms so that the final concentration of bacterial cells was 10^5. Ampicillin, oxacillin, and ciprofloxacin (Sigma) were used as reference drugs. A drug-free control and a sterility control were included. The plates were incubated for 24 h at 37 °C for staphylococci and enterococci. […] The experiments were repeated three times.

The subject of assay [8] is vancomycin-resistant E. faecalis VRE 342B. Put plainly: MIC, microtitration broth method, VRE1. Conditions: Enterococcus faecalis, 24 h, 37 °C, BHI broth.
Source text: as §7, §8, §9

In assay [9] the test system is Enterococcus faecalis ATCC 29212. The experiment in a line: MIC, microtitration broth method, EF. Conditions: ATCC29212, 24 h, 37 °C, BHI broth.
Source text: as §7, §8, §9

The test system of assay [10] is methicillin-resistant S. aureus SA 3202. The experiment in a line: MIC, microtitration broth method, MRSA1. Conditions: Staphylococcus aureus; 24 h, 37 °C, CaMH broth.
Source text: as §7, §8, §9

Molecules are shown by their SMILES. ≈ marks a conversion by molar mass, not a printed value.

One may read the IC50 as the concentration that inhibits the measured activity by half. Lower therefore signals greater potency in that assay. In general, MBC refers to the smallest concentration meeting the test's criterion for killing. What is called MIC is the lowest concentration found to suppress growth. Lower therefore signals inhibition by little substance. As for `C#CC(C)(C)NS(=O)(=O)c1ccc(O)c2ncccc12` [3b, 8-Hydroxy-N-(1,1-dimethylprop-2-yn-1-yl)quinoline-5-sulfonamide], the IC50 in [1] was 17.2 ± 1.5 µM; in assay [3] it was above 100 µM; in assay [5], 22.1 ± 1.5 µM. Besides, the MBC was 110 µM (≈ 31.9 µg/mL) in assay [2], 110 µM (≈ 31.9 µg/mL) in assay [4] and above 883 µM in assay [6]. The MIC worked out at 110 µM (≈ 31.9 µg/mL) in assay [7], 883 µM (≈ 256 µg/mL) in [8], 883 µM (≈ 256 µg/mL) in [9] and 55.2 µM (≈ 16 µg/mL) in [10].
As to `C#CCOc1ccc(NS(=O)(=O)c2ccc(O)c3ncccc23)cc1` [3d, 8-Hydroxy-N-[4-(prop-2-yn-1-yloxy)phenyl]quinoline-5-sulfonamide], the IC50 in [1] is 12.9 ± 1.1 µM; in [3], above 100 µM; in assay [5], 10.4 ± 0.5 µM. Also, the MBC came out at 45.2 µM (≈ 16 µg/mL) in assay [2], 45.2 µM (≈ 16 µg/mL) in assay [4] and 362 µM (≈ 128 µg/mL) in assay [6]. The MIC in assay [7] is 90.4 µM (≈ 32 µg/mL); in assay [8], 362 µM (≈ 128 µg/mL); in assay [9], 362 µM (≈ 128 µg/mL); in assay [10] it was 45.2 µM (≈ 16 µg/mL).
For `C#CCOc1ccccc1NS(=O)(=O)c1ccc(O)c2ncccc12` [3f, 8-Hydroxy-N-[2-(prop-2-yn-1-yloxy)phenyl]quinoline-5-sulfonamide], the IC50 in [1] stood at 19.1 ± 0.8 µM; in assay [3] it was 28.1 ± 2.2 µM; in [5], 29.6 ± 2.6 µM. Further, the MBC in [2] turned out to be 90.4 µM (≈ 32 µg/mL); in assay [4], 45.2 µM (≈ 16 µg/mL); in [6], 362 µM (≈ 128 µg/mL). Also, the MIC in assay [7] stood at 90.4 µM (≈ 32 µg/mL); in assay [8], 362 µM (≈ 128 µg/mL); in assay [9], 362 µM (≈ 128 µg/mL); in [10], 45.2 µM (≈ 16 µg/mL).
For the compound `C#CCOc1cccc(NS(=O)(=O)c2ccc(O)c3ncccc23)c1` [3e, 8-Hydroxy-N-[3-(prop-2-yn-1-yloxy)phenyl]quinoline-5-sulfonamide], the values for the half-inhibitory concentration (IC50) in assay [1], in assay [3] and in [5] were 11.5 ± 0.7 µM, above 100 µM and 8.6 ± 0.9 µM, respectively. Also, the minimal bactericidal concentration (MBC) stood at 90.4 µM (≈ 32 µg/mL) in [2], 45.2 µM (≈ 16 µg/mL) in [4] and 362 µM (≈ 128 µg/mL) in assay [6]. For the same compound, the MIC in [7] worked out at 90.4 µM (≈ 32 µg/mL); in assay [8], 362 µM (≈ 128 µg/mL); in assay [9], 362 µM (≈ 128 µg/mL); in [10], 45.2 µM (≈ 16 µg/mL).
Consider `C#CCN(C)S(=O)(=O)c1ccc(O)c2ncccc12` [3c, 8-Hydroxy-N-methyl-N-(prop-2-yn-1-yl)quinoline-5-sulfonamide], for which the values for the IC50 in assay [1], in assay [3] and in assay [5] were 13.9 ± 0.6 µM, above 100 µM and 9.8 ± 0.6 µM, respectively. Also, the MBC was 29 µM (≈ 8.01 µg/mL) in [2], 29 µM (≈ 8.01 µg/mL) in [4] and above 464 µM in assay [6]. For the same compound, the MIC in [7] is 29 µM (≈ 8.01 µg/mL); in [8] it was 464 µM (≈ 128 µg/mL); in assay [9], 464 µM (≈ 128 µg/mL); in [10], 29 µM (≈ 8.01 µg/mL).
As for `C#CCNS(=O)(=O)c1ccc(O)c2ncccc12` [3a, 8-Hydroxy-N-(prop-2-yn-1-yl)quinoline-5-sulfonamide], the figures for the IC50 in assay [1], in assay [3] and in assay [5] were 23.1 ± 0.7 µM, above 100 µM and 19.8 ± 1.1 µM, respectively. Further, the MBC in assay [2] was 122 µM (≈ 32 µg/mL); in [4] it was 122 µM (≈ 32 µg/mL); in [6], above 977 µM. In addition, the MIC in assay [7] stood at 244 µM (≈ 64 µg/mL); in assay [8], 977 µM (≈ 256 µg/mL); in assay [9], 977 µM (≈ 256 µg/mL); in assay [10] it was 122 µM (≈ 32 µg/mL).
